Laboratory results: PMC3915196, “Asymmetric Synthesis of Spirocyclic 2-Benzopyrans for Positron Emission Tomography of σ1 Receptors in the Brain” (Pharmaceuticals, 2014)
Like-named read-outs stand apart in the source and are kept apart here. Marks after values point to notes of the source that are not given here.

What was measured:
[1] = HPLC calibration; cited from earlier work
[2] = molecular target: T1, σ1 receptors in the brain (Mus musculus, UniProt O55242); parameters: method as in PMID 21072511; details: 30 min after injection, 18F-labeled tracer; cited from earlier work
T1 construct: tissue Medizinisch-Experimentelles Zentrum, Universität Leipzig; host or cells: brain of female CD1 mice (in vivo / ex vivo autoradiography)

[3] = cited from earlier work
σ2 receptor = molecular target: T2, σ2 receptor (Rattus norvegicus, UniProt Q5U3Y7); experiment: σ2 receptor binding assay with [3H]DTG, σ1 sites masked with (+)-pentazocine; details: for inhibition at 1 µM: read-out: Inhibition of radioligand binding (σ2)
T2 construct: two rat livers were cut into small pieces and homogenized with the Potter; tissue Harlan-Winkelmann, Borchen, Germany; host or cells: rat liver membrane homogenate
T2 sequence (Q5U3Y7 1-176): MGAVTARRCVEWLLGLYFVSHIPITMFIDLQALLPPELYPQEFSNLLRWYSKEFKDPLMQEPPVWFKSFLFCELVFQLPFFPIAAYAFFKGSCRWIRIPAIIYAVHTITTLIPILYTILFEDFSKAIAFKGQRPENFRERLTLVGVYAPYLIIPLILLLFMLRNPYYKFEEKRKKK

σ1 receptor [4] = molecular target: T3, σ1 receptor (Cavia porcellus, UniProt Q60492); experiment: σ1 receptor binding assay with [3H]-(+)-pentazocine; parameters: species or system guinea pig
T3 construct: five guinea pig brains were homogenized with the Potter; tissue Harlan-Winkelmann, Borchen, Germany; host or cells: guinea pig brain (cortex) membrane homogenate

[5] = molecular target: T1, σ1 receptors in the brain; experiment: Brain uptake and ex vivo autoradiography under control and haloperidol blocking conditions; assay type: in vivo
Procedure: The experimental protocols were approved by the local ethics committee and conducted according to the national and EU regulations for animal research. Female CD1 mice (10–12 weeks old, 33.8 ± 6.2 g) were obtained from the Medizinisch-Experimentelles Zentrum, Universität Leipzig and housed under a 12 h/12 h light/dark cycle with free access to food and water for at least 24 h before experiments. Animals were sacrificed by CO2 asphyxiation after anaesthesia with O2/CO2 mixture.
The tracer distribution in the brain under control and blocking conditions was determined by ex vivo autoradiography studies. […] Animals were sacrificed at 30 min p.i. Blood was collected by heart puncture, the brain quickly removed and transferred on ice, and all samples were weighed. Radioactivity in brain and plasma samples was counted using an automated γ-counter and expressed as percentage of injected dose per gram (%ID/g). For autoradiography, the brain hemispheres were frozen immediately after isolation in 2-methylbutane (Carl Roth, Karlsruhe, Germany) at −30 °C (>2 min). Serial sagittal slices of 12 µm thickness were cut on a cryostat (Microm, Walldorf, Germany) from approx. midline, +500 µm, +1,000 µm and +1,500 µm. Slices were exposed overnight on an imaging plate (SR 2025, Fuji, Tokyo, Japan), scanned afterwards with a high-resolution phosphorimager (HD-CR 35 Bio, raytest). 2D densitometry of the whole brain was performed with AIDA software (raytest).

[6] = phosphate buffer, Dulbecco buffer and native mouse plasma over 30 min at 37 °C
Procedure: For pharmacological characterization of the radiotracer [^18F]-(R)-20, chemical stability was investigated in vitro in different buffer systems over 2 h at 40 °C: 50 mM phosphate buffer (pH 7.2), phosphate-saline-solution (Dulbecco; pH 7.2) and 0.01 M TRIS-HCl (pH 7.4).

[7] = female, CD1, mouse, in vivo
σ1 receptor [8] = molecular target: T3, σ1 receptor; details: earlier 2-benzofuran tracers, quoted for comparison, no reference printed at the values; cited from earlier work
[9] = rat liver membranes, [3H]DTG, read-out: Ki ± SEM σ2
[10] = at a concentration of 1 µM, rat liver membranes, [3H]DTG
[11] = established PET tracers, quoted for comparison, no reference given

T1 sequence (O55242 whole entry): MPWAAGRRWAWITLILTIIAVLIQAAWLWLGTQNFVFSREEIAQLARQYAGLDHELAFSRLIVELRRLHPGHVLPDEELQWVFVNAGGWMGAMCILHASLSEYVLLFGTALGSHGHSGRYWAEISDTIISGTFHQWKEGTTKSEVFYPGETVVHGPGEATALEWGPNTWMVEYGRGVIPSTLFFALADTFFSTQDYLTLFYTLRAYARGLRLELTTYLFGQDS
T3 sequence (Q60492 whole entry): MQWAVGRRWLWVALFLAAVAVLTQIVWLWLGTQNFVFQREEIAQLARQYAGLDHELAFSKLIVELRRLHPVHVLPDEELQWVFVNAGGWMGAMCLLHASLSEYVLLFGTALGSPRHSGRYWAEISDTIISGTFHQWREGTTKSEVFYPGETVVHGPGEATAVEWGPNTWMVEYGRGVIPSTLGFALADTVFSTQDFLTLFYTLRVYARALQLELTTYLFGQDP

For `Clc1ccccc1` [chlorobenzene], the “logD of reference compounds used for calibration” value (from here on “logD of reference compounds used”) [1] is listed as 2.8.
In the case of `FCCC1OC2(CCN(Cc3ccccc3)CC2)c2ccccc21` (stereo not drawn) [[^18F]2b], the total-to-nonspecific binding ratio [2] is listed as “approx. 3”, the “parent compound in liver samples” value ([3]; mouse, in vivo) is listed as 69% and the “unchanged parent compound in plasma” value ([3]; mouse, in vivo) is listed as 89%.
For `CO[C@H]1COC2(CCN(Cc3ccccc3)CC2)c2ccccc21` [(R)-15, (R)-1′-Benzyl-4-methoxy-3,4-dihydrospiro[[2]benzopyran-1,4′-piperidine]], the Ki (σ2 receptor; [9]) was 1150 nM, the Ki (σ1 receptor [4]) was 1.2 ± 0.3 nM and the “Selectivity σ1/σ2” value (σ1 receptor [4]) was 958. For the same compound, the “eudismic ratio (σ1 affinity)” value (σ1 receptor [4]) was 7.
For `FCCCCC1OC2(CCN(Cc3ccccc3)CC2)c2ccccc21` (stereo not drawn) [Compound 2d], the total-to-nonspecific binding ratio [2] is given as “approx. 3”.
For `FCCO[C@H]1COC2(CCN(Cc3ccccc3)CC2)c2ccccc21` [(R)-20, (R)-1′-Benzyl-4-(2-fluoroethoxy)-3,4-dihydrospiro[[2]benzopyran-1,4′-piperidine]], the inhibition at 1 µM (σ2 receptor; [10]) was 14%, the Ki (σ1 receptor [4]) was 4.7 ± 0.7 nM and the “Selectivity σ1/σ2” value (σ1 receptor [4]) was over 210.
For `[18F]CCO[C@H]1COC2(CCN(Cc3ccccc3)CC2)c2ccccc21` [[^18F]-(R)-20], the “mean decrease of radiotracer uptake in slices of the whole brain hemisphere with haloperidol” value ([5]; 2D densitometry of ex vivo autoradiographs) was “about 40%”, the total-to-nonspecific binding ratio ([5]; mouse brain, 30 min p.i.) was 1.5 and the “uptake of radioactivity in the brain” value ([5]; mouse, 30 min p.i., blocking conditions, co-application of 1 mg/kg haloperidol) was 2.24 % ID/g. For the same compound, the “uptake of radioactivity in the brain” value ([5]; mouse, 30 min p.i., control conditions) was 3.4 % ID/g, the “reduction of brain uptake by haloperidol co-application” value ([5]; mouse, 30 min p.i., from %ID/g values) was 34% and the defluorination [6] was “No defluorination was observed”. The “non-metabolized radiotracer of total radioactivity in urine” value ([7]; 0.5 h) was 2-20%, the “unchanged parent radiotracer in liver” value ([7]; 30 min) was about 56% and the Ki (σ1 receptor [4]) was 4.7 nM.
In the case of `CO[C@@H]1COC2(CCN(Cc3ccccc3)CC2)c2ccccc21` [(S)-15, (S)-1′-Benzyl-4-methoxy-3,4-dihydrospiro[[2]benzopyran-1,4′-piperidine]], the Ki (σ2 receptor; [9]) is reported as 676 nM, the Ki (σ1 receptor [4]) is reported as 8.8 ± 1.1 nM and the “Selectivity σ1/σ2” value (σ1 receptor [4]) is reported as 77.
For `c1ccc2c(c1)-c1cccc3cccc-2c13` [fluoranthene], the “logD of reference compounds used” value [1] is listed as 5.1.
For `OCCO[C@H]1COC2(CCN(Cc3ccccc3)CC2)c2ccccc21` [(R)-19, (R)-2-[(1′-Benzyl-3,4-dihydrospiro[[2]benzopyran-1,4′-piperidin]-4-yl)oxy]ethanol], the inhibition at 1 µM (σ2 receptor; [10]) was 0%, the Ki (σ1 receptor [4]) was 55 ± 1 nM and the “Selectivity σ1/σ2” value (σ1 receptor [4]) was over 15.
In the case of `FCCO[C@@H]1COC2(CCN(Cc3ccccc3)CC2)c2ccccc21` [(S)-20, (S)-1′-Benzyl-4-(2-fluoroethoxy)-3,4-dohydrospiro[[2]benzopyran-1,4′-piperidine]], the inhibition at 1 µM (σ2 receptor; [10]) is reported as 10%, the Ki (σ1 receptor [4]) is reported as 5.9 ± 2.9 nM and the “Selectivity σ1/σ2” value (σ1 receptor [4]) is reported as over 170.
In the case of `CCOC(=O)CO[C@@H]1COC2(CCN(Cc3ccccc3)CC2)c2ccccc21` [(S)-18, Ethyl (S)-2-[(1′-benzyl-3,4-dihydro-3,4-dihydrospiro[2-benzopyran-1,4′-piperidin]-4-yl)oxy]acetate], the inhibition at 1 µM (σ2 receptor) is reported as 12%, the Ki (σ1 receptor [4]) is reported as 114 nM and the “Selectivity σ1/σ2” value (σ1 receptor [4]) is reported as over 5.
In the case of `c1ccc2ccccc2c1` [naphthalene], the “logD of reference compounds used” value [1] is given as 3.6.
With `CCO[C@H]1COC2(CCN(Cc3ccccc3)CC2)c2ccccc21` [(R)-16, (R)-1′-Benzyl-4-ethoxy-3,4-dihydrospiro[[2]benzopyran-1,4′-piperidine]] the Ki (σ2 receptor) was 954 nM, the Ki (σ1 receptor [4]) was 5 ± 1.2 nM and the “Selectivity σ1/σ2” value (σ1 receptor [4]) was 191.
In the case of `[18F]CCCC1OC2(CCN(Cc3ccccc3)CC2)c2ccccc21` (stereo not drawn) [[^18F]2c], the “parent compound in liver samples” value [3, 11] is listed as 65% and the “unchanged parent compound in plasma” value [3, 11] is listed as 86%.
In the case of “tert-Butyl (S)-4-hydroxy-3,4-dihydrospiro[[2]benzopyran-1,4′-piperidine]-1′-carboxylate [(S)-11]”, the “Inhibition of radioligand binding (σ2)” value (σ2 receptor; 1 µM) is reported as 24% *, the “Selectivity σ1/σ2” value (σ1 receptor [4]) is reported as over 55 and the Ki (σ1 receptor [4]; read-out: Ki ± SEM σ1) is reported as 18 ± 5 nM.
With `CCO[C@@H]1COC2(CCN(Cc3ccccc3)CC2)c2ccccc21` [(S)-16, (S)-1′-Benzyl-4-ethoxy-3,4-dihydrospiro[[2]benzopyran-1,4′-piperidine]] the inhibition at 1 µM (σ2 receptor) was 31%, the Ki (σ1 receptor [4]) was 4.2 ± 0.8 nM and the “Selectivity σ1/σ2” value (σ1 receptor [4]) was over 235.
In the case of `FCCC1OC2(CCN(Cc3ccccc3)CC2)c2ccccc21` (stereo not drawn) [fluspidine], the Ki (σ1 receptor [8]) is listed as 0.59 nM.
Compound `O[C@@H]1COC2(CCN(Cc3ccccc3)CC2)c2ccccc21` has a melting point of 53 °C.
`CC(C)(C)OC(=O)N1CCC2(CC1)OC[C@H](O)c1ccccc12` [(R)-11, tert-Butyl (R)-4-hydroxy-3,4-dihydrospiro[[2]benzopyran-1,4′-piperidine]-1′-carboxylate] showed a melting point of 161 °C, a Ki (σ2 receptor; [9]) of 2150 nM and a Ki (σ1 receptor [4]; guinea pig brain membranes, [3H]-(+)-pentazocine, three independent experiments, read-out: Ki ± SEM σ1) of 5.2 ± 0.3 nM. For the same compound, the “Selectivity σ1/σ2” value (σ1 receptor [4]; ratio of σ2 and σ1 Ki values) was 413.
For `CCOC(=O)CO[C@H]1COC2(CCN(Cc3ccccc3)CC2)c2ccccc21` [(R)-18, Ethyl (R)-2-[(1′-benzyl-3,4-dihydrospiro[[2]benzopyran-1,4′-piperidin]-4-yl)oxy]acetate], the Ki (σ2 receptor) was 552 nM, the Ki (σ1 receptor [4]) was 4 ± 0.8 nM and the “Selectivity σ1/σ2” value (σ1 receptor [4]) was 138. The “eudismic ratio (σ1 affinity)” value (σ1 receptor [4]) was 29.
With `OCCO[C@@H]1COC2(CCN(Cc3ccccc3)CC2)c2ccccc21` [(S)-19, (S)-2-[(1′-Benzyl-3,4-dihydrospiro[[2]benzopyran-1,4′-piperidin]-4-yl)oxy]ethanol] the inhibition at 1 µM (σ2 receptor; [10]) was 0%, the Ki (σ1 receptor [4]) was 64 ± 0.9 nM and the “Selectivity σ1/σ2” value (σ1 receptor [4]) was over 15.
With `O[C@H]1COC2(CCN(Cc3ccccc3)CC2)c2ccccc21` the melting point was 55 °C.
